The COVID Moonshot data (paper PMC7615835)
Where “and” joins values, the source holds several entries; their conditions need not be identical. Equal entries are not always repeated.

Each compound was assayed against SARS-CoV-2 Main Protease (SARS-CoV-2) (UniProt P0DTD1).

Structure (SMILES)	IC50
O=C(Cc1cc(Cl)cc(Nc2ccccc2I)c1)Nc1cncc2ccccc12	2.17 µM
CC1CN(C)CCN1C(=O)CC1(C(=O)Nc2cncc3ccccc23)CCOc2ccc(Cl)cc21 (centres undefined)	7.87 µM and 4.85 µM
COc1ccc2cncc(NC(=O)[C@@]3(OC)CCOc4ccc(Cl)cc43)c2c1 (stereo in doubt)	4.18 µM
COC(=O)C1CC(NC(=O)C(c2cccnc2)N(C(=O)c2cocn2)c2ccc(C(C)(C)C)cc2)C1 (centres undefined)	3.99 µM
N#Cc1ccc(CC(=O)Nc2cncc3ccccc23)cc1	> 99.5 µM
O=C(NC1(C(=O)Nc2cncc3ccccc23)CCOc2ccc(Cl)cc21)C1CCC(C(=O)N2CCCC2)O1 (centres undefined)	2.81 µM
O=C(Nc1ccc2c(=O)cc[nH]c2c1)c1ccc2ccncc2c1	> 99.5 µM
Cc1cccc(CC2CCN(C(=O)CCl)CC2)c1	14.7 µM
CC(C)(C)c1ccc(N(C(=O)c2cocn2)C(C(=O)NCc2ccncc2)c2cccnc2)cc1 (centres undefined)	> 99.5 µM
CC1(C)Cc2cccc(OCCNC(=O)c3cc(=O)[nH]c4cc(F)ccc34)c2O1	> 99.5 µM
O=C(NCC1CCCCC1)[C@@H]1CN(C(=O)CCl)CCN1S(=O)(=O)c1ccsc1 (stereo in doubt)	1.1 µM
Cc1ncc(CN2CC(C(=O)Nc3cncc4cc(S(C)(=O)=O)ccc34)c3cc(Cl)ccc3C2=O)[nH]1 (centres undefined)	0.226 µM
CNC(=O)c1ccc2cncc(NC(=O)C3CN(S(=O)(=O)CC4(C)CS(=O)(=O)C4)Cc4ccc(Cl)cc43)c2c1 (centres undefined)	0.11 µM
O=C(Cc1cccc(Cl)c1)Nc1ncnc2ccccc12	> 99.5 µM
O=C(Nc1cncc2ccccc12)C1COCc2c(Cl)cccc21 (centres undefined)	7.02 µM
N#Cc1ccc(C(=O)N2C[C@@H](F)C[C@H]2CNC(=O)C2CCCC2O)[nH]1 (stereo in doubt)	> 99.5 µM
CC(C)(C)c1csc(Nc2cc(Cl)cc(CC(=O)Nc3cncc4ccccc34)c2)n1	2.09 µM
COc1cc(N(C(=O)c2cnc[nH]2)C(C(=O)NCCc2cccc(F)c2)c2cccnc2)ccc1S(=O)(=O)N(C)C (centres undefined)	> 99 µM
Cc1cc(NC(=O)Cc2cncnc2)cc(OC2CC(=O)N2)c1 (centres undefined)	34.6 µM and 34 µM
CN1C(=O)CCc2cc(N(C(=O)c3cocn3)C(C(=O)NCCc3cccc(F)c3)c3cccnc3)ccc21 (centres undefined)	63.5 µM

Structure (SMILES)	IC50
CN(C)C(=O)COCC(=O)NC(C(=O)Nc1cncc2ccccc12)c1cccc(Cl)c1 (centres undefined)	5.41 µM
O=C(Nc1cncc2cc(F)ccc12)[C@@H]1CCS(=O)(=O)c2ccc(Cl)cc21 (stereo in doubt)	0.294 µM
O=C(Cc1cc(Cl)cc(N2CCN(Cc3cccc(F)c3)CC2)c1)Nc1cncc2ccccc12	3.28 µM
O=C(Cc1ccccc1Cl)Nc1cncc2ccccc12	> 99.5 µM
O=C(Cc1cc(Cl)cc(Nc2ccc([N+](=O)[O-])c3ccccc23)c1)Nc1cncc2ccccc12	2.14 µM
O=C(CC1(C(=O)Nc2cncc3ccccc23)CCOc2ccc(Cl)cc21)N1CCCCC1c1ccn[nH]1 (centres undefined)	0.616 µM
Cc1cc(C(=O)CCl)c(C)n1NC(=O)c1n[nH]c(=O)c2ccccc12	6.05 µM
CCn1nccc1C(=O)N1Cc2ccc(Cl)cc2C2(CCN(c3cncc4ccccc34)C2=O)C1 (centres undefined)	0.297 µM
CN(C)c1ccc(C(Cc2ccsc2)C(=O)Nn2cnc3ccccc32)cc1 (centres undefined)	> 99.5 µM
O=C(CCl)N1CCN(C2(c3cccc(Cl)c3)CC2)CC1	64.9 µM and 42.1 µM
O=C(NCCc1cccc(F)c1)C(c1cccnc1)N(C(=O)c1cnc[nH]1)c1ccc(Cl)cc1 (centres undefined)	> 99.5 µM
O=C(Cc1cccc(Cl)c1)Nc1ncn2ccccc12	> 99.5 µM
O=C(Cc1cncnc1)Nc1cc(F)cc(OC2CC(=O)N2)c1 (centres undefined)	24.6 µM and 25.3 µM
N#Cc1cc(Cl)c(Nc2cc(Cl)cc(CC(=O)Nc3cncc4ccccc34)c2)c(Cl)c1	1.79 µM
O=C(c1ccnn1C1CC1)N1Cc2ccc(Cl)cc2C2(CCN(c3cncc4ccccc34)C2=O)C1 (centres undefined)	0.163 µM
O=C(Cc1cc(Cl)cc(OC2CC(=O)N2)c1)Nc1cncc2ccccc12 (centres undefined)	0.274 µM and 0.15 µM
O=S(=O)(Cc1ccccc1F)c1oc(-c2ccc(F)cc2)nc1S(=O)(=O)c1ccccc1	0.397 µM
O=C(Cc1ccc(Cl)cc1)Nc1cncc2ccccc12	23.7 µM
O=C1CC(Oc2cc(Cl)cc(CC(=O)Nn3cnc4ccccc4c3=O)c2)N1 (centres undefined)	> 99.5 µM
